Values of other authors as cited in US20090196863A1, “METHOD OF ANTIOXIDATION AND ANTIOXIDANT-FUNCTIONING WATER” (MIZ CO., LTD., priority 2001, published 2009).

Conditions: normal temperature (20° C.) and atmospheric pressure

saturated solvent concentration: approximately 1.6 mg/L
SMILES: [HH] [molecular hydrogen]
